Measured values reported in patent US20090018642A1, “Methods to improve the stability of celluar adhesive proteins and peptides” (BOSTON SCIENTIFIC SCIMED, INC., priority 2007, published 2009).
Where two headings read alike, the source gives them in different places.

Experiments:
[1] = Method: A blank solution with PBS only was also prepared.
8 mm Liberte WH stents were placed in the wells of a 48-well polystyrene plate and 240 μl of each peptide concentration (including the blank) was then added to each well. The plates were then incubated for at least 1 hr at room temperature (RT) with gentle shaking (100 rpm) to allow for binding to occur. Excess peptide solution was removed and discard using a micropipette.
The stents were then washed 3 times with 1.5 ml PBS-Tween, with approximately 30 sec of shaking at 150 rpm between washes. 1.5 ml of 1% bovine serum albumin (BSA) in PBS (blocking solution) was then added to each stent and incubated for 1 hr at RT with gentle shaking (100 rpm) to allow for blocking to occur. After 1 hr, excess blocking solution was removed and discarded with a micropipette. The stent was then washed 3 times with 1.5 ml PBS-Tween using the wash method described above.
300 μl of Streptavidin-AP (alkaline phosphatase) solution was added to each stent at 1/1000 in TBS+1% BSA and incubated for 30 min at room temperature with gentle shaking (100 rpm). Excess Streptavidin solution was then removed and discarded. The stents were then washed 2 times with 1.5 ml PBS-Tween and then transferred to a set of new wells on the same plate using tweezers. Once the stents were moved, they were then washed once more with 1.5 ml PBS-Tween. 300 μl of the chromogen p-nitrophenyl phosphate (PNPP) was added to each stent in the 48 well plate. The plate was then placed on the shaker platform and incubated for 5 minutes at 100 rpm to allow color development to occur. 10 μl of sodium hydroxide (NaOH) was then added to the wells of a 96 well tissue culture plate. To stop the color development, 100 μl of the solution in each stent containing well was transferred to a well containing NaOH in the 96 well plate.
Optical density (OD) was determined by reading the 96 well plate in a plate reader (Spectramax Plus, Molecular Devices) at 405 nm in endpoint mode. The measured OD for the blank was subtracted from the ODs for all other solutions. The resulting ODs were plotted (y-axis) vs. concentration (μM) (log x-axis).
The OD at 5 min (405 nm) was measured at 1 hr, 4 hr and 24 hrs as described above.
The OD at 5 min (405 nm) was measured and the EC50 was determined as described above.

[2] = Langmuir isotherm, quartz crystal microbalance with dissipation (QCM-D); assay type: binding
Method: Stainless Steel Quartz Crystals (Q-Sense, QSX 304) were cleaned with a UV/Ozone treatment (Bioforce, UV […], Model No. […] The crystals were then immersed in a 2% sodium dodecyl sulfate (SDS) (MPI, Product No. 811036) in dH2O solution for 5 minutes, washed thoroughly with dH2O, N2 dried, and UV/Ozone treated for an additional 10 minutes. Surface Characterization: The QCM-D measurements (Q-Sense E4) were made with a solution flow rate of 100 μL per minute. The experiment was temperature controlled at 25° C. In the experiments, four samples were tested at one time using the QCM-D. Each experiment included running PBS for approximately 10 minutes to establish a stable baseline. The peptide solutions were then added at various concentrations until the change in frequency was 2 Hz per 30 minutes or less. The final step was to wash with PBS for 30 minutes or until the change in frequency was 2 Hz per 30 minutes or less. For analysis purposes (Sauerbrey model, Q-Tools), generally the third overtone was used from each sample.

[3] = system: human coronary artery endothelial cells (HCAEC); test: HCAEC migration on coated stainless steel strips; assay type: cell-based; conditions: strips pre-coated with 10 μM peptide; 48 hours; uncoated stainless steel normalized to 1; p<0.01
Text: Migration and proliferation of endothelial cells on biomaterials can impact the rates of reendothelization and angiogenesis, which can be important during the development and success of implantable medical devices. In this experiment, the effect of a surface-binding cell adhesion polypeptide on the motility of human coronary artery endothelial cells (HCAEC) on a stainless steel substrate was examined in vitro. The surface-binding cell adhesion polypeptide used in this example included DOPA as a surface binding moiety, a (ALA-Aib)3 linker, and the recognition sequence for laminin receptors (YIGSR) as the cell adhesion polypeptide [(DOPA)2-(ALA-Aib)3-YIGSR-OH, hereinafter PEPTIDE-1] (synthesized at the MGH Peptide/Protein Core Facility, Harvard Medical School, Boston, Mass.).
Human coronary artery endothelial cells (HCAEC, available from Cell Applications, Inc., San Diego, Calif.) were used in this study. The substrates were sterile stainless steel strips [3.5″×0.308″×0.031″] or sterile stainless steel strips coated with PEPTIDE-1.
Collagen gels were prepared using the following protocol: One 10 mg vial of high concentration (HC) Type I collagen (Rat tail, from BD Biosciences, San Jose, Calif.) was diluted with distilled sterile H2O to a final volume of 38 ml and mixed thoroughly without introducing bubbles (by pipetting up and down). […]

[4] = on the order of; cited from earlier work

Compound: (DOPA)2-(ALA-Aib)3-RIGSY-(Biotin)-OH [PEPTIDE-2]
- EC50 ([1]; incubation time study, 1 hr): 310 nM
- EC50 ([1]; incubation time study, 4 hr): 300 nM
- EC50 ([1]; incubation time study, 24 hr): 270 nM
- EC50 ([1]; read-out: half-maximal concentration (EC50), concentration range study, coating 1 hour at room temperature): ~370 nM
- affinity for stainless steel in comparison to BSA ([2]; greater affinity than non-specific protein BSA): approx. 3 orders of magnitude

Compound: (DOPA)2-(ALA-Aib)3-YIGSR-OH [PEPTIDE-1]
- HCAEC migration compared to stainless steel alone [3]: 1.7 fold

Compound: bovine serum albumin [BSA, reference compound]
- EC50 ([2]; QCM-D, 25° C.): ≥ 100000 nM

Compound: (Dopa)2-(Ala-Aib)3-RIGSY-OH [PEPTIDE-3]
- EC50 ([2]; QCM-D, 25° C.): 280 nM
- Kd ([2]; QCM-D, 25° C., Langmuir isotherm fit): 260 nM

Compound: N[C@@H](Cc1ccc(O)c(O)c1)C(=O)O [DOPA, 3,4 dihydroxyphenylalanine]
- binding constant [4]: ~10^16
